Experimental data published in ChEMBL document CHEMBL4152341, “Small Molecules Simultaneously Inhibiting p53-Murine Double Minute 2 (MDM2) Interaction and Histone Deacetylases (HDACs): Discovery of Novel Multitargeting Antitumor Agents” (J Med Chem, 2018).

Columns and labels:
A549 [1] = test: Antiproliferative activity against human A549 cells after 72 hrs by CCK8 assay; assay type: functional, cell-based; conditions: A549, 72 h
Mus musculus [2] = test: Toxicity in human A549 cells xenografted in BALB/C nude mouse assessed as induction of adverse effects at 100 to 150 mg/kg, po administered once daily for 21 days starting day 11 after tumor cells implantation; assay type: organism-based; conditions: in vivo, 504 h
[3] = Tmax in Sprague-Dawley rat at 20 mg/kg, po administered via gavage by LC-MS/MS analysis; assay type: ADME, organism-based; conditions: in vivo
A549 [4] = test: cells; conditions: Homo sapiens, A549, 48 h, read-out: Activity
Histone deacetylase 3 = Histone deacetylase 3 (Homo sapiens, UniProt O15379); test: Inhibition of HDAC3 (unknown origin) after 30 mins by fluorescence assay
Sequence of Histone deacetylase 3 (O15379 whole entry): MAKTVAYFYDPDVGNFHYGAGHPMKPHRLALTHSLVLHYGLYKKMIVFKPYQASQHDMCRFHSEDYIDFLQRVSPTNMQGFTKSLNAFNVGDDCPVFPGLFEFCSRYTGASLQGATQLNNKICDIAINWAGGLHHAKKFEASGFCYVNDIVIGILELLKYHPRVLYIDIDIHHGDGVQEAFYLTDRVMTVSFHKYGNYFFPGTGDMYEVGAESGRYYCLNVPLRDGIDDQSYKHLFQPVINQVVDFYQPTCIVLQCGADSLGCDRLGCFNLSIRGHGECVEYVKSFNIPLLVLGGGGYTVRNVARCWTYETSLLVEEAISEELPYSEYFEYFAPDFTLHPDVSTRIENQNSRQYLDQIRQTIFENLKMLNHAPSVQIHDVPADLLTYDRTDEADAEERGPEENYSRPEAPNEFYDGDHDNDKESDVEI

A549 [5] = test: Antitumor activity against human A549 cells xenografted in BALB/C nude mouse assessed as inhibition of tumor growth at 150 mg/kg, po administered once daily for 21 days starting day 11 after tumor cells implantation; assay type: functional; conditions: read-out: TGI
HCT-116 = test: Antiproliferative activity against human HCT116 cells after 72 hrs by CCK8 assay; assay type: functional, cell-based; conditions: HCT-116, 72 h
Histone deacetylase 1 = Histone deacetylase 1 (Homo sapiens, UniProt Q13547); test: Inhibition of human recombinant full length HDAC1 using fluorogenic substrate 3 after 30 mins by fluorescence assay
Sequence of Histone deacetylase 1 (Q13547 whole entry): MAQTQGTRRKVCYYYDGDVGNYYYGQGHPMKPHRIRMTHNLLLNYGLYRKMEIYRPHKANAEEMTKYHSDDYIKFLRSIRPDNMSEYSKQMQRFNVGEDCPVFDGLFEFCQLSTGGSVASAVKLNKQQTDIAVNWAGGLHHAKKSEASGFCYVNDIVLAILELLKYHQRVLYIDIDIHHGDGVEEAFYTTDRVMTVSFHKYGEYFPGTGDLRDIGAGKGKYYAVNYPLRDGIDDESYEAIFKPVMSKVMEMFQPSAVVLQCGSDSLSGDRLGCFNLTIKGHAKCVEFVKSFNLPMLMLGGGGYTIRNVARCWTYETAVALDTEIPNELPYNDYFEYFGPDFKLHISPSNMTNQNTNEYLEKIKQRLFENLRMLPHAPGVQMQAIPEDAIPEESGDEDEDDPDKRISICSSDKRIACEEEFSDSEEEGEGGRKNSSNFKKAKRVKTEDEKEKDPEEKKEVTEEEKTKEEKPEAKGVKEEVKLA

Histone deacetylase 2 = Histone deacetylase 2 (Homo sapiens, UniProt Q92769); test: Inhibition of HDAC2 (unknown origin) after 30 mins by fluorescence assay
Sequence of Histone deacetylase 2 (Q92769 whole entry): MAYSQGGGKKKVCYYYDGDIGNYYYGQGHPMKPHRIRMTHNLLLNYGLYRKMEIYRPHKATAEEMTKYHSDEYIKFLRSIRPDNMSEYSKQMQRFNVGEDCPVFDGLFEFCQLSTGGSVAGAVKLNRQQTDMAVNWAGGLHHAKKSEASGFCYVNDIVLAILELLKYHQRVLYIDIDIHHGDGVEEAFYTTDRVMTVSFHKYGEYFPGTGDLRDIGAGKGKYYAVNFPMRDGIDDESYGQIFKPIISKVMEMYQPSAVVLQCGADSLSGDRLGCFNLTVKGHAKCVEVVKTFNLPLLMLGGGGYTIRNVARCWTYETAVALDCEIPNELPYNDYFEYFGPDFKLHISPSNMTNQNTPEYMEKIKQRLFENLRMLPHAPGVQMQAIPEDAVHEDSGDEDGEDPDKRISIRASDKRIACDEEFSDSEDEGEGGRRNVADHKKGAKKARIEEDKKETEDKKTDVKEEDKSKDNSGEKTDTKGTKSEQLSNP

[6] = Tmax in Sprague-Dawley rat at 2 mg/kg, iv administered as bolus dose by LC-MS/MS analysis; assay type: ADME, organism-based; conditions: in vivo
NCI-H1299 = test: Antiproliferative activity against human NCI-H1299 cells after 72 hrs by CCK8 assay; assay type: functional, cell-based; conditions: NCI-H1299, 72 h
A549 [7] = test: Antitumor activity against human A549 cells xenografted in BALB/C nude mouse assessed as inhibition of tumor growth administered orally once daily for 21 days starting day 11 after tumor cells implantation; assay type: functional, cell-based
Rattus norvegicus [8] = test: Clearance in Sprague-Dawley rat at 2 mg/kg, iv administered as bolus dose by LC-MS/MS analysis; assay type: ADME, organism-based; conditions: in vivo
MCF7 = test: cells; conditions: Homo sapiens, MCF7, 72 h
Description: Antiproliferative activity against human MCF7 cells after 72 hrs by CCK8 assay

[9] = target: E3 ubiquitin-protein ligase Mdm2 (Homo sapiens, UniProt Q00987); test: Inhibition of MDM2 (unknown origin) preincubated for 30 mins by fluorescence polarization assay
Sequence of E3 ubiquitin-protein ligase Mdm2 (Q00987 whole entry): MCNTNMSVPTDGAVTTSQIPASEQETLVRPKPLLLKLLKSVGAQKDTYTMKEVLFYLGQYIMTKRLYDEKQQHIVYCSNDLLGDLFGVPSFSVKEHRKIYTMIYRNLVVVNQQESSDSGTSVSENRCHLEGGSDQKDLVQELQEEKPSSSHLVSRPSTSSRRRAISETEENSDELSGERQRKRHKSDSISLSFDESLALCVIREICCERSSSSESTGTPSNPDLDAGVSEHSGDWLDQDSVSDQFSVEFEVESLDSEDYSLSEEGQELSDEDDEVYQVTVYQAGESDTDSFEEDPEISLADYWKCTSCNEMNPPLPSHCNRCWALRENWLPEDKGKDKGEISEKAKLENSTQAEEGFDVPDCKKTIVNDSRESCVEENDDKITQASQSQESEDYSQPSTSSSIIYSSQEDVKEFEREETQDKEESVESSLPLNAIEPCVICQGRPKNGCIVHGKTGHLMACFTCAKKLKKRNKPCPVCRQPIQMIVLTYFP

A549 [10] = test: cells; conditions: Homo sapiens, A549, 48 h, read-out: Activity; remark: listed apart in the source
[11] = Cmax in Sprague-Dawley rat at 20 mg/kg, po administered via gavage by LC-MS/MS analysis; assay type: ADME, organism-based; set-up: dose 20 mg/kg, route oral; conditions: in vivo
[12] = Cmax in Sprague-Dawley rat at 2 mg/kg, iv administered as bolus dose by LC-MS/MS analysis; assay type: ADME, organism-based; set-up: dose 2 mg/kg, route intravenous; conditions: in vivo
Rattus norvegicus [13] = test: Volume of distribution at steady state in Sprague-Dawley rat at 2 mg/kg, iv administered as bolus dose by LC-MS/MS analysis; assay type: ADME, organism-based; conditions: in vivo
[14] = target: T1, Protein deacetylase HDAC6 (Homo sapiens, UniProt Q9UBN7); test: Inhibition of HDAC6 (unknown origin) after 30 mins by fluorescence assay
T1 sequence (Q9UBN7 whole entry): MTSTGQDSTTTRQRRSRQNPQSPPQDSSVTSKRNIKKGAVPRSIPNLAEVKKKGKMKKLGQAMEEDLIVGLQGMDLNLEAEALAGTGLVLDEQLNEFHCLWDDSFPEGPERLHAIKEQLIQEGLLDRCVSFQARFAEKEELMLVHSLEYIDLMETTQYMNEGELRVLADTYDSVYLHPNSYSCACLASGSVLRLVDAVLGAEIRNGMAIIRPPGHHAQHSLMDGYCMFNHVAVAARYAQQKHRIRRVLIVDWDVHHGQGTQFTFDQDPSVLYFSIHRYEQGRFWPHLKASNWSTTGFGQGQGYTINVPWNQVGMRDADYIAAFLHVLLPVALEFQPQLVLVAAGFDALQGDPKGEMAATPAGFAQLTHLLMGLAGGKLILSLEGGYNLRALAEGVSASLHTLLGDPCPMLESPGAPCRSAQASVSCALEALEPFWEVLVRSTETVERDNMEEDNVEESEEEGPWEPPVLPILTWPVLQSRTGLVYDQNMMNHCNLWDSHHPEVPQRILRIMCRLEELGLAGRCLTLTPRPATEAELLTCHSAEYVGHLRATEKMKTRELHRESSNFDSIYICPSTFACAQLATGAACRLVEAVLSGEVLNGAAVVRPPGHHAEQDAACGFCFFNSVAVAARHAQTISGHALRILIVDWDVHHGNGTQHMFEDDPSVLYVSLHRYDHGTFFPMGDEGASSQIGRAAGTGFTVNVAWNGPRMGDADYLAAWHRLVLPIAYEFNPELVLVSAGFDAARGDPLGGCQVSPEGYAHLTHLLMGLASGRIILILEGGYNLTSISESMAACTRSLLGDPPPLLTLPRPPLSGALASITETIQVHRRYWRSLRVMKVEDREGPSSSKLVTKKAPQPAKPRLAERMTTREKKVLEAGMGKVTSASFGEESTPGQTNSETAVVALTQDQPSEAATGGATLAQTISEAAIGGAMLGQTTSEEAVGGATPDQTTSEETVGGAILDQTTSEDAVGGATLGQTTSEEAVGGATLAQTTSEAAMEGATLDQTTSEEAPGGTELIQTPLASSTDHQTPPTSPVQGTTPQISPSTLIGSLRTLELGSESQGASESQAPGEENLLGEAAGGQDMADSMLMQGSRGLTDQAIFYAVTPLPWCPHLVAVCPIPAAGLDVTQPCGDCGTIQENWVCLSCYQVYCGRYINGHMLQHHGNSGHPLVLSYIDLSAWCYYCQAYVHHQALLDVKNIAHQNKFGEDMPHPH

[15] = Terminal half life in Sprague-Dawley rat at 2 mg/kg, iv administered as bolus dose by LC-MS/MS analysis; assay type: ADME, organism-based; conditions: in vivo, read-out: beta t1/2 (converted)
A549 [16] = test: animal or person; assay type: functional, Homo sapiens; conditions: Mus musculus, A549, po, read-out: TGI
Mus musculus [17] = test: Toxicity in human A549 cells xenografted in BALB/C nude mouse assessed as body weight loss at 100 to 150 mg/kg, po administered once daily for 21 days starting day 11 after tumor cells implantation; assay type: organism-based; conditions: in vivo, 504 h
Rattus norvegicus [18] = test: AUC (0 to infinity) in Sprague-Dawley rat at 2 mg/kg, iv administered as bolus dose by LC-MS/MS analysis; assay type: ADME, organism-based; set-up: dose 2 mg/kg, time infinity, route intravenous; conditions: in vivo
Rattus norvegicus [19] = test: Oral bioavailability in Sprague-Dawley rat at 20 mg/kg administered via gavage by LC-MS/MS analysis; assay type: ADME, organism-based; conditions: in vivo
Histone deacetylase 8 = target: T2, Histone deacetylase 8 (Homo sapiens, UniProt Q9BY41); test: Inhibition of HDAC8 (unknown origin) after 30 mins by fluorescence assay
T2 sequence (Q9BY41 whole entry): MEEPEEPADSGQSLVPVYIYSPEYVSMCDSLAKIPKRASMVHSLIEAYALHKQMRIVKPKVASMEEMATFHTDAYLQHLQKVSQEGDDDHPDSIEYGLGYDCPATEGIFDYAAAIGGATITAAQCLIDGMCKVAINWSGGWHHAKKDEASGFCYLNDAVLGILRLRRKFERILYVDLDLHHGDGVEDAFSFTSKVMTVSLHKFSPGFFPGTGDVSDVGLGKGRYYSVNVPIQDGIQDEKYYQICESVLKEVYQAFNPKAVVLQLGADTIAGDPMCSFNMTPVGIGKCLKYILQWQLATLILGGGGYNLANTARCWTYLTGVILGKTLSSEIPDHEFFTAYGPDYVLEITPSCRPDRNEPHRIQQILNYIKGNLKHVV

Rattus norvegicus [20] = test: AUC (0 to infinity) in Sprague-Dawley rat at 20 mg/kg, po administered via gavage by LC-MS/MS analysis; assay type: ADME, organism-based; set-up: dose 20 mg/kg, route oral, time infinity; conditions: in vivo
[21] = Terminal half life in Sprague-Dawley rat at 20 mg/kg, po administered via gavage by LC-MS/MS analysis; assay type: ADME, organism-based; conditions: in vivo, read-out: beta t1/2 (converted)

With `CCOc1cc(C(C)(C)C)ccc1C1=NC(c2ccc(Cl)cc2)C(c2ccc(Cl)cc2)N1C(=O)N1CCN(CCCCCCC(=O)NO)CC1` (stereo not drawn) the IC50 (A549 [1]) was 910 nM, the Activity (Mus musculus [2]) was “Non-Toxic” and the Tmax [3] was 3.33 h. It also gave a viability at 5 µM (A549 [4]) of 64.9%, an IC50 (Histone deacetylase 3) of 178 nM and an inhibition in vivo at 150 mg/kg (A549 [5]) of 74.5%. For the same compound, the IC50 (HCT-116) was 1080 nM, the IC50 (Histone deacetylase 1) was 820 nM and the IC50 (Histone deacetylase 2) was 420 nM. For the same compound, the Tmax [6] was 4.98 min, the IC50 (NCI-H1299) was 4160 nM and the TGI (A549 [7]) was “Dose-dependent effect”. It also gave a clearance (Rattus norvegicus [8]) of 46.8 mL/min/kg, an IC50 (MCF7) of 4340 nM and a Ki [9] of 110 nM. It also gave a viability at 1 µM (A549 [10]) of 77.2%, a Cmax [11] of 93.7 ng/mL and a Cmax [12] of 1470 ng/mL. The Vdss (Rattus norvegicus [13]) was 4.9 L/kg, the IC50 [14] was 17.5 nM and the half-life [15] was 1.22 h. For the same compound, the inhibition in vivo at 100 mg/kg (A549 [16]) was 65.4%, the Activity (Mus musculus [17]) was “Non-Toxic” and the AUC (Rattus norvegicus [18]) was 716.3 ng·h/mL. The F (Rattus norvegicus [19]) was 18%, the IC50 (Histone deacetylase 8) was 1220 nM and the AUC (Rattus norvegicus [20]) was 323.23 ng·h/mL. The half-life [21] was 5.87 h.
